SMILES strings stand for the structures. Like-named read-outs stand apart in the source and are kept apart here.

For this assay, the target named is T1, hT1R2/hT1R3 (Homo sapiens, UniProt Q7RTX0+Q8TE23).
T1 construct: expressed in transfected cells; parental cells lack the receptor
T1 sequence (Q8TE23 20-839): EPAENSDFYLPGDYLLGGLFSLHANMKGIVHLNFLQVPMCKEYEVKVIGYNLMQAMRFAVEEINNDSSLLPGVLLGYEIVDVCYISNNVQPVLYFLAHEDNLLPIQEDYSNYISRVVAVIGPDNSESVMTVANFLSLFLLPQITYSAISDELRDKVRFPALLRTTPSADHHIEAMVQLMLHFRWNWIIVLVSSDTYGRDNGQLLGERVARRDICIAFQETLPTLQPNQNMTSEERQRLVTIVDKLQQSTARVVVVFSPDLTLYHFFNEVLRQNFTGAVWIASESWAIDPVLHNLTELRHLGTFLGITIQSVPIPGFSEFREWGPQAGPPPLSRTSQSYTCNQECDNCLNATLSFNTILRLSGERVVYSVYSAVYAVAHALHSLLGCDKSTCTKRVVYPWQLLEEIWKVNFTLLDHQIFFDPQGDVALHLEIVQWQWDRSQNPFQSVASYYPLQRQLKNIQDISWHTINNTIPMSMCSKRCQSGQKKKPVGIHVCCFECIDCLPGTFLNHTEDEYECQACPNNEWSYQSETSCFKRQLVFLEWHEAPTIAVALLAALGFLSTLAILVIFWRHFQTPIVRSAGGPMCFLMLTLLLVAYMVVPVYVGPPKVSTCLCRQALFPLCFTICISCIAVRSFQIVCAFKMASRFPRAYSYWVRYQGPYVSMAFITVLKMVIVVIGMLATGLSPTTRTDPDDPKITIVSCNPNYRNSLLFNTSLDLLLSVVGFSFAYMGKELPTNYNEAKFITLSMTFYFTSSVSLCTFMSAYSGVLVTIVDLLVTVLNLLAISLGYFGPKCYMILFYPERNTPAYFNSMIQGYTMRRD
T1 sequence (Q7RTX0 21-852): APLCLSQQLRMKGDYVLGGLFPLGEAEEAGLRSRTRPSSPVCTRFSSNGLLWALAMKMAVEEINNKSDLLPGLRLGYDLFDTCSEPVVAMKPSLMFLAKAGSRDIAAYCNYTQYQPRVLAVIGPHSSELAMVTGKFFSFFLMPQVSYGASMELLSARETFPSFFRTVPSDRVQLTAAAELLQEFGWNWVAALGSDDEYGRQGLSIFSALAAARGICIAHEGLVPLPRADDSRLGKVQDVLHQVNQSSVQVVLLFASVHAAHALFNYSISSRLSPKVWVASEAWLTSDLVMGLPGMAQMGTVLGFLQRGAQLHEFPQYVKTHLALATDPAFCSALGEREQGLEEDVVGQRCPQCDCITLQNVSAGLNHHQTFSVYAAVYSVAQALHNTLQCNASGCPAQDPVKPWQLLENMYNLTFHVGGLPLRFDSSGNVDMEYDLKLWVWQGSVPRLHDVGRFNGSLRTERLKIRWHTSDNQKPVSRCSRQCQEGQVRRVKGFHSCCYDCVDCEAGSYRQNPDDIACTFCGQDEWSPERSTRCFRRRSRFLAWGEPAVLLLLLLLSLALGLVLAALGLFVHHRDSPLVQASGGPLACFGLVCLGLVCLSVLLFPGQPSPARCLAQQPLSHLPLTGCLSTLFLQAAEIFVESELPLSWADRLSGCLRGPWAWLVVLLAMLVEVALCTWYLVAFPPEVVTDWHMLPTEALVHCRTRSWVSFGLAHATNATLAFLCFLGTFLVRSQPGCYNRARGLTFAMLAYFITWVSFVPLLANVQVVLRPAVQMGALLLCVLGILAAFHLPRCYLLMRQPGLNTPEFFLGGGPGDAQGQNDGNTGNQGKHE
The experiment in a line: HTS-Sweet: FLIPR calcium fluorometric imaging assay in cells stably expressing the human sweet taste receptor and a promiscuous G protein. The assay is classed as cell-based. As for the experimental part: Compound activity (EC50) was determined using an automated fluorometric imaging assay on a FLIPR instrument (Fluorometric […] Plate Reader, Molecular Devices, Sunnyvale, Calif.). Cell stably expressing the human sweet taste receptor and a promiscuous G protein were seeded into 384-well plates (at approximately 40,000 cells per well). Cells were grown for 24 hours at 37° C. Cells were then loaded with the calcium dye Fluo-4AM (Molecular Probes, Eugene, Oreg.), 4 μM in a phosphate buffered saline (D-PBS) (Invitrogen, Carlsbad, Calif.), for 1 hour at room temperature. After replacement with 25 μl D-PBS, stimulation was performed in the FLIPR instrument and at room temperature by the addition of 25 μl D-PBS supplemented with different stimuli at concentrations corresponding to twice the desired final level. Receptor activity was quantified by determining the maximal fluorescence increases (using a 480 nm excitation and 535 nm emission) after normalization to basal fluorescence intensity measured before stimulation.
For dose-responses analysis, stimuli were presented in duplicates at 10 different concentrations ranging from 0.4 μM to 200 μM. EC50 s were determined using a non-linear regression algorithm, where the Hill slope, bottom asymptotes and top asymptotes were allowed to vary.

Where [1] appears, read: FLIPR, Fluo-4AM, 10 concentrations 0.4 μM to 200 μM in duplicates, read-out: Compound EC50s for hT1R2/hT1R3.

On to `C[C@H](CC[C@@H](O[C@@H]1O[C@H](CO)[C@@H](O)[C@H](O)[C@H]1O[C@@H]1O[C@H](CO)[C@@H](O)[C@H](O)[C@H]1O)C(C)(C)O)C1CC[C@@]2(C)C3CC=C4C(CC[C@H](O[C@@H]5O[C@H](CO[C@@H]6O[C@H](CO)[C@@H](O)[C@H](O)[C@H]6O)[C@@H](O)[C@H](O)[C@H]5O[C@H]5O[C@@H](CO)[C@H](O)[C@@H](O)[C@@H]5O)C4(C)C)[C@]3(C)[C@H](O)C[C@]12C` (some centres unmarked) [Compound 32], for which the EC50 under setting [1] is above 30 µM.

With `CC(CCC(OC1OC(COC2OC(CO)C(O)C(O)C2O)C(O)C(O)C1OC1OC(CO)C(O)C(O)C1O)C(C)(C)O)C1CCC2(C)C3CC=C4C(CCC(OC5OC(COC6OC(CO)C(O)C(O)C6O)C(O)C(O)C5O)C4(C)C)C3(C)C(O)CC12C` (centres unmarked) [Compound 12], the EC50 was in the range of 17 to 30 µM.

Take `C[C@H](CC[C@@H](O[C@@H]1O[C@H](CO[C@H]2O[C@H](CO)[C@@H](O)[C@H](O)[C@H]2O)[C@@H](O)[C@H](O)[C@H]1O[C@@H]1O[C@H](CO)[C@@H](O)[C@H](O)[C@H]1O)C(C)(C)O)C1CC[C@@]2(C)C3CC=C4C(CC[C@H](O[C@@H]5O[C@H](CO)[C@@H](O[C@H]6O[C@H](CO)[C@@H](O)[C@H](O)[C@H]6O)[C@H](O)[C@H]5O)C4(C)C)[C@]3(C)[C@H](O)C[C@]12C` (some centres unmarked) [Compound 5]: the EC50 under setting [1] lay in the range of 17 to 30 µM.

Take `C[C@H](CC[C@@H](O[C@@H]1O[C@H](CO[C@@H]2O[C@H](CO[C@@H]3O[C@H](CO)[C@@H](O)[C@H](O)[C@H]3O)[C@@H](O)[C@H](O)[C@H]2O)[C@@H](O)[C@H](O)[C@H]1O[C@@H]1O[C@H](CO)[C@@H](O)[C@H](O)[C@H]1O)C(C)(C)O)C1CC[C@@]2(C)C3CC=C4C(CC[C@H](O[C@@H]5O[C@H](COC6O[C@H](CO)[C@@H](O)[C@H](O)[C@H]6O)[C@@H](O)[C@H](O)[C@H]5O)C4(C)C)[C@]3(C)[C@H](O)C[C@]12C` (some centres unmarked) [Compound 30]: under setting [1], the EC50 was above 30 µM.

In the case of `C[C@H](CC[C@@H](O[C@@H]1O[C@H](CO[C@@H]2O[C@H](CO)[C@@H](O)[C@H](O)[C@H]2O)[C@@H](O)[C@H](O)[C@H]1O[C@@H]1O[C@H](CO)[C@@H](O)[C@H](O)[C@H]1O)C(C)(C)O)C1CC[C@@]2(C)C3CC=C4C(CC[C@H](O[C@@H]5O[C@H](CO[C@H]6O[C@H](CO[C@H]7O[C@@H](CO)[C@H](O)[C@@H](O)[C@@H]7O)[C@@H](O)[C@H](O)[C@H]6O)[C@@H](O)[C@H](O)[C@H]5O)C4(C)C)[C@]3(C)[C@H](O)C[C@]12C` (some centres unmarked) [Compound 2], the EC50 under setting [1] is 17 to 30 µM.

As to `C[C@H](CC[C@@H](O[C@@H]1O[C@H](CO[C@H]2O[C@H](CO)[C@@H](O)[C@H](O)[C@H]2O)[C@@H](O)[C@H](O)[C@H]1O[C@@H]1O[C@H](CO)[C@@H](O)[C@H](O)[C@H]1O)C(C)(C)O)C1CC[C@@]2(C)C3CC=C4C(CC[C@H](O[C@@H]5O[C@H](CO[C@@H]6O[C@H](CO)[C@@H](O)[C@H](O)[C@H]6O)[C@@H](O)[C@H](O)[C@H]5O)C4(C)C)[C@]3(C)[C@H](O)C[C@]12C` (some centres unmarked) [Compound 23], the EC50 was below 17 µM.

Consider `C[C@H](CC[C@@H](O[C@@H]1O[C@H](CO[C@H]2O[C@H](CO)[C@@H](O)[C@H](O)[C@H]2O)[C@@H](O)[C@H](O)[C@H]1O[C@@H]1O[C@H](CO)[C@@H](O)[C@H](O)[C@H]1O)C(C)(C)O)C1CC[C@@]2(C)C3CC=C4C(CC[C@H](O[C@@H]5O[C@H](CO)[C@@H](O)[C@H](O)[C@H]5O)C4(C)C)[C@]3(C)[C@H](O)C[C@]12C` (some centres unmarked) [Compound 3], for which the EC50 is below 17 µM.

`C[C@H](CC[C@@H](O[C@@H]1O[C@H](CO)[C@@H](O)[C@H](O)[C@H]1O[C@@H]1O[C@H](CO)[C@@H](O[C@@H]2O[C@H](CO)[C@@H](O)[C@H](O)[C@H]2O)[C@H](O)[C@H]1O)C(C)(C)O)C1CC[C@@]2(C)C3CC=C4C(CC[C@H](O[C@@H]5O[C@H](CO)[C@@H](O)[C@H](O)[C@H]5O)C4(C)C)[C@]3(C)[C@H](O)C[C@]12C` (some centres unmarked) [Compound 13]: the EC50 under setting [1] fell in the range of 17 to 30 µM.

As to `C[C@H](CC[C@@H](O[C@@H]1O[C@H](CO[C@H]2O[C@H](CO)[C@@H](O)[C@H](O)[C@H]2O)[C@@H](O)[C@H](O)[C@H]1O[C@@H]1O[C@H](CO)[C@@H](O)[C@H](O)[C@H]1O)C(C)(C)O)C1CC[C@@]2(C)C3CC=C4C(CC[C@H](O[C@@H]5O[C@H](CO[C@H]6O[C@H](CO)[C@@H](O)[C@H](O)[C@H]6O)[C@@H](O)[C@H](O)[C@H]5O)C4(C)C)[C@]3(C)[C@H](O)C[C@]12C` (some centres unmarked) [Compound 4], the EC50 was below 17 µM.

As for `C[C@H](CC[C@@H](O[C@@H]1O[C@H](CO[C@@H]2O[C@H](CO)[C@@H](O)[C@H](O)[C@H]2O)[C@@H](O[C@@H]2O[C@H](CO)[C@@H](O)[C@H](O)[C@H]2O)[C@H](O)[C@H]1O)C(C)(C)O)C1CC[C@@]2(C)C3CC=C4C(CC[C@H](O[C@@H]5C[C@H](COC6O[C@H](CO)[C@@H](O)[C@H](O)[C@H]6O)[C@@H](O)[C@H](O)[C@H]5O)C4(C)C)[C@]3(C)C(=O)C[C@]12C` (some centres unmarked) [Compound 29], under setting [1], the EC50 was above 30 µM.

Regarding `C[C@H](CC[C@@H](O[C@@H]1O[C@H](CO[C@@H]2O[C@H](CO)[C@@H](O)[C@H](O)[C@H]2O)[C@@H](O)[C@H](O)[C@H]1O[C@@H]1O[C@H](CO)[C@@H](O)[C@H](O)[C@H]1O)C(C)(C)O)C1CC[C@@]2(C)C3CC=C4C(CC[C@H](O[C@@H]5O[C@H](CO[C@@H]6O[C@H](CO)[C@@H](O)[C@H](O)[C@H]6O)[C@@H](O)[C@H](O)[C@H]5O)C4(C)C)[C@]3(C)C=C[C@]12C` (some centres unmarked) [Compound 31], under setting [1], the EC50 was above 30 µM.

Take `C[C@H](CC[C@@H](O[C@@H]1O[C@H](CO)[C@@H](O)[C@H](O)[C@H]1O[C@@H]1O[C@H](CO)[C@@H](O[C@H]2O[C@H](CO)[C@@H](O)[C@H](O)[C@H]2O)[C@H](O)[C@H]1O)C(C)(C)O)C1CC[C@@]2(C)C3CC=C4C(CC[C@H](O[C@@H]5O[C@H](CO)[C@@H](O)[C@H](O)[C@H]5O)C4(C)C)[C@]3(C)[C@H](O)C[C@]12C` (some centres unmarked) [Compound 9]: the EC50 under setting [1] was 17 to 30 µM.

For `C[C@H](CC[C@@H](O[C@@H]1O[C@H](CO[C@H]2O[C@H](CO)[C@@H](O)[C@H](O)[C@H]2O)[C@@H](O)[C@H](O)[C@H]1O[C@@H]1O[C@H](CO)[C@@H](O[C@H]2O[C@H](CO)[C@@H](O)[C@H](O)[C@H]2O)[C@H](O)[C@H]1O)C(C)(C)O)C1CC[C@@]2(C)C3CC=C4C(CC[C@H](O)C4(C)C)[C@]3(C)[C@H](O)C[C@]12C` (some centres unmarked) [Compound 16], the EC50 under setting [1] was 17 to 30 µM.

Turning to `C[C@H](CC[C@@H](O[C@@H]1O[C@H](CO[C@H]2O[C@H](CO)[C@@H](O)[C@H](O)[C@H]2O)[C@@H](O)[C@H](O)[C@H]1O[C@@H]1O[C@H](CO)[C@@H](O)[C@H](O)[C@H]1O)C(C)(C)O)C1CC[C@@]2(C)C3CC=C4C(CC[C@H](O[C@@H]5O[C@H](CO)[C@@H](O)[C@H](O)[C@H]5O)C4(C)C)[C@]3(C)C(=O)C[C@]12C` (some centres unmarked) [Compound 11], the EC50 under setting [1] was above 30 µM.

The values are drawn from patent US11357246B2, “High intensity sweeteners” (Firmenich Incorporated, priority 2015, dated 2022).
